# Values quoted from earlier work as cited in patent US20240001339A1, “DRYING PROCESSES FOR BIO-COMPATIBLE SPME COATINGS” (SIGMS-ALDRICH CO. LLC, priority 2020, published 2024).
# Tests used:
# [1] = for conventional SPME devices
compound,measurement,setting,value
NC(=O)N1c2ccccc2C=Cc2ccccc21 [Carbamazepine],reference protein binding,[1],70-80%
same,Log p,,2.45
same,pKa,,13.9
